Consider three compounds from patent US9494589B2, “Method of determining the probability of a therapeutic response in cancer chemotherapy with cardiac glycoside” (priority 2007, dated 2016).

For one experiment, the system named is PANC1 cells. The experiment is described as follows: In vitro cytotoxicity, MTT assay of cell proliferation. The class given is cell-based, human. As to conditions: PANC1, Pancreas, 72 hr; for IC50: Homo sapiens, PANC-1. The source says: (§1) As defined in the Tables above, an “in vitro response” denotes the extent to which proliferation of a given tumor cell line is inhibited with a stated concentration of drug (cardiac glycoside) over a defined period of time. A designation of “no response” denotes less than 50% growth inhibition at any of the multiple drug concentrations tested. That is, no concentration could be identified as an IC50 value (that concentration producing inhibition of cell growth by 50% over the stated period of time of the experiment). Accordingly, were this tumor cell line growing in a mammal such as a human, it is probable that the drug would be ineffective in producing significant inhibition of tumor growth. The designation of “partial response” in the Table above denotes the capacity of a given cardiac glycoside such as oleandrin or bufalin to inhibit cell proliferation by more than 50% but less than 75% relative to nontreated tumor cell growth. Accordingly, this would equate to a partial or less than complete therapeutic response of the tumor to the cardiac glycoside if this product were used to treat tumor growth in a mammal such as a human. […] Accordingly, it is probable that total inhibition of tumor growth (or a complete therapeutic response, in a mammal might be achieved.
(§2) Cells were grown in their relevant media as indicated in the table below at a density of 1×10^4 cells/well. After a 24 hr incubation period, cells were treated with various concentrations of oleandrin (1 to 500 nM). After an additional 72 hr, inhibition of cellular proliferation was assessed by MTT assay (23). Absorbance was read at a wavelength of 570 nm and a reference wavelength of 650 nm using a V-Max Micro-plate Reader by Molecular Devices, Inc. (Sunnyvale, Calif.). The relative extent of inhibition of cell proliferation due to the presence of a given concentration of oleander extract or other plant extract containing a cardiac glycoside compound(s) can be derived by comparing treated to non-treated cell numbers after a set period of time allowing for cell growth (e.g. 24-72 hr).

In a further experiment the test system is MiaPaca cells. The experiment is described as above. The following applies: 72 hr; for IC50: Homo sapiens, MIA PaCa-2, Pancreas; for In vitro response: Pancreas. The class given is cell-based, human.
Description: as §1, §2

The test system of another experiment is BXPC3 cells. Described as above. The class given is cell-based, human. The following applies: BXPC3, Pancreas; 72 hr.
Description: as §1, §2

Experiment [1] has as its system rodent (mouse and rat) tumor cell lines. The experiment is described as follows: In vitro proliferation of rodent tumor cell lines. As to conditions: rodent tumor cell lines lacking α3 subunit isoform. The class given is cell-based. The source says:
Rodent (rat or mouse) cancer cells can be used as a negative control sample. FIG. 1A depicts a film developed against the gel of a Western blot analysis of rodent tumor cell lines. […] Human tumor cell lines are generally more sensitive to treatment with cardiac glycoside-containing composition than are murine tumor cells (FIG. 1B). The inventors believe this difference in therapeutic responsiveness is due to the differences in the ratio of α3 to α1 isoforms in the two different species, as noted above.

Experiment [2] relates to non-transfected Panc-1 cells. The experiment is described as follows: Sensitivity to oleandrin of non-transfected Panc-1 cells. The class given is cell-based. As to conditions: Homo sapiens. The source says:
(§3) Still further proof of the relative importance of the α3/α1 isoform ratio toward predictability of a therapeutic response by a target malignant tissue to treatment with a cardiac glycoside was established by transfection of Panc-1 cells with α1 subunit isoform. The Na, K-ATPase α1 subunit isoform was transfected to Panc-1 cells, which normally lack α1 expression. The control sample in FIG. 5A is for non-transfected Panc-1 cells, and the α1cDNA sample in FIG. 5A is for Panc-1 cells transfected with the α1 subunit isoform. As a result, the ratio of α3 to α1 was reduced in the transfected Panc-1 cells (FIG. 5B). The sensitivity of the transfected Panc-1 cells to oleandrin treatment was then evaluated.

The subject of experiment [3] is Panc-1 cells transfected with α3 siRNA. In words: Sensitivity to oleandrin of Panc-1 cells transfected with α3 siRNA, Calcein AM viability. The class given is cell-based, human. The following applies: α3 expression reduced by siRNA; 10 to 50 nM, 48 hr. The source says:
Further proof of the relative importance of the α3/α1 isoform ratio toward predictability of a therapeutic response by a target malignant tissue to treatment with a cardiac glycoside was established as follows. Artificial down-regulation of the expression of α3 isoform in human pancreatic cancer cells, i.e. manipulation of isoform content of subunits of Na, K-ATPase, was achieved by transfection of cells with siRNA (silencing RNA) specific to the α3 isoform. […] Quantitation of the decreased expression of α3 by Western blot is detailed in FIG. 4B.
Panc-1 cells were plated in 6 and 48 well plates and allowed to attach overnight. Transient transfection of α3 siRNA molecules was carried out using siPORT™ Amine Transfection Agent (Ambion Austin, Tex.) and 0.4 μM α3 silencing RNA (Santa Cruz Biotech.) following the manufacture's instructions. Twenty-four hr after transfection, cells were treated with 10 to 50 nM oleandrin for 48 hr. Protein was collected from the 6 well plates for Western blot analysis and cell viability assessment was carried out by Calcien AM staining.

The subject of the next experiment is DOD-1 cells. The experiment is described as follows: In vitro cytotoxicity, MTT assay of cell proliferation. The class given is cell-based, human. As to conditions: DOD-1, Colon, 72 hr.
Description: as §1, §2

The next experiment concerns HCT116 cells. The experiment is described as above. The class given is cell-based, human. As to conditions: HCT116, Colon, 72 hr.
Description: as §1, §2

The next experiment has as its system BRO cells. The experiment is described as above. The class given is cell-based, human. As to conditions: Melanoma, 72 hr.
Description: as §1, §2

A further experiment concerns MCF7 cells. The experiment is described as above. The class given is cell-based, human. The following applies: MCF7, Breast; 72 hr.
Description: as §1, §2

The next experiment deals with MDA231 cells. Described as above. The class given is cell-based, human. The following applies: MDA231, Breast; 72 hr.
Description: as §1, §2

A further experiment relates to LS174T cells. Described as above. The class given is cell-based, human. The following applies: Colon, 72 hr.
Description: as §1, §2

The next experiment relates to HT29 cells. Described as above. The class given is cell-based, human. As to conditions: HT29, Colon, 72 hr.
Description: as §1, §2

The test system of another experiment is CACO2 cells. Described as above. The class given is cell-based, human. The following applies: CACO2, Colon, 72 hr.
Description: as §1, §2

The subject of another experiment is SUM149 cells. Described as above. The class given is cell-based, human. The following applies: SUM149, Breast, 72 hr.
Description: as §1, §2

In the next experiment the test system is human tumor cell lines. The experiment is described as follows: Mean IC50 of growth inhibition in groups of tumor cell lines by α3/α1 isoform ratio. The class given is cell-based. The following applies: ten cell lines α3/α1 >1.0 versus six cell lines α3/α1 <1.0. As for the experimental part:
FIG. 3A depicts a plot of concentration (nM) of oleandrin (provided as oleandrin) versus the percentage of growth of control. […] Exemplary cell lines for the groups are: Group I-MDA231, BXPC3, MCF-7; Group II-SUM149, BRO; Group III-Panc-1, CaCo2. The response data are as predicted by the isoform ratio data. In order to establish the robustness of the method and kit of the invention, a statistical analysis of cellular response data was conducted. The data in FIG. 3B depict the relative ability of oleandrin-containing composition to inhibit human tumor cell proliferation in vitro. The data are depicted as Mean±SD. Oleandrin mediated growth inhibition was examined in ten cell lines (representing a variety of solid tumors) in which the relative subunit content α3/α1 isoform ratio >1.0 and six cell lines in which the α3/α1 isoform ratio <1.0.
Student's t test was used to determine the statistical differences between various experimental groups; a value of P<0.05 was considered to be significant.

In the next experiment the test system is Human melanoma BRO cells. The experiment is described as follows: Cytotoxicity comparison of oleandrin and extracts, crystal violet staining. The class given is cell-based. As to conditions: oleandrin equivalent concentrations, 72 hr. As for the experimental part: (§4) The cytotoxic potential of both extracts are compared directly with that of oleandrin. The samples contained the same amounts of oleandrin even though their concentration of oleandrin differed due to the concentration of oleandrin present in the extracts.
(§5) BRO (human melanoma) and Panc-1 (human pancreatic cancer) cells (8×10^3/well) were plated in a 96 well plate and allowed to attach overnight. Drug or extracts were then added to the cells. After 72 hr of incubation, relative cell proliferation (relative to control untreated cells) was assessed by crystal violet staining method.

Experiment [4] has as its system Human pancreatic cancer PANC-1 cells. The experiment is described as above. The class given is cell-based. The following applies: oleandrin equivalent concentrations, 72 hr. As to the method:
as §4, §5

The subject of experiment [5] is α1 transfected Panc-1 cells. The experiment is described as follows: Sensitivity to oleandrin of Panc-1 cells transfected with α1 subunit isoform. The class given is cell-based. As to conditions: Homo sapiens.
Description: as §3

On to `C[C@]12CC[C@H](O)C[C@H]1CC[C@@H]1[C@@H]2CC[C@]2(C)[C@@H](c3ccc(=O)oc3)CC[C@]12O` [bufalin], for which the IC50 with PANC1 cells was 1.2 nM; with MiaPaca cells it was 2.1 nM. The In vitro response result in the experiment with PANC1 cells is “Complete*** (Denotes greater than 75% growth inhibition achieved at 62 nM)”; with MiaPaca cells, “Complete*** (Denotes greater than 75% growth inhibition achieved at 62 nM)”; in the experiment on BXPC3 cells, “No* (Denotes less than 50% growth inhibition achieved at concentrations up to 125 nM)”. Further, the “Inhibition of proliferation in vitro” value in experiment [1] was “not significantly inhibited”.
Take `CO[C@H]1C[C@H](O[C@H]2CC[C@@]3(C)[C@H](CC[C@@H]4[C@@H]3CC[C@]3(C)[C@@H](C5=CC(=O)OC5)[C@@H](OC(C)=O)C[C@]43O)C2)O[C@@H](C)[C@@H]1O` [oleandrin]: the IC50 turned out to be 4.1 nM in [2]; 19.6 nM with DOD-1 cells (Homo sapiens); 36.2 nM in the experiment on HCT116 cells (Homo sapiens, HCT-116); 6.1 nM in the experiment with PANC1 cells; 14.2 nM in the experiment on MiaPaca cells; 8.2 nM in the experiment with BRO cells (Homo sapiens). In addition, the IC50 is 20.7 nM with LS174T cells (Homo sapiens); 15.6 nM in the experiment with HT29 cells (Homo sapiens, HT-29); 9.4 nM in the experiment on CACO2 cells (Homo sapiens, Caco-2); 22.5 nM with SUM149 cells (Homo sapiens); 17 nM with Human melanoma BRO cells; 10 nM in experiment [4]. Further, in [5], the IC50 is > 50 nM. In addition, the “Sensitivity of transfected cells to treatment” value in experiment [3] is “lose their sensitivity”. In addition, the In vitro response entry is “Complete*** (Denotes greater than 75% growth inhibition achieved at 62 nM)” with DOD-1 cells; “Partial** (Denotes greater than 50% but less than 75% growth inhibition achieved at 62 nM)” in the experiment on HCT116 cells; “Complete*** (Denotes greater than 75% growth inhibition achieved at 62 nM)” in the experiment with PANC1 cells; “Complete*** (Denotes greater than 75% growth inhibition achieved at 62 nM)” with MiaPaca cells; “No* (Denotes less than 50% growth inhibition achieved at concentrations up to 125 nM)” in the experiment with BXPC3 cells; “Complete*** (Denotes greater than 75% growth inhibition achieved at 62 nM)” with BRO cells. Besides, the In vitro response result with MCF7 cells is on record as “No* (Denotes less than 50% growth inhibition achieved at concentrations up to 125 nM)”; with MDA231 cells, “No* (Denotes less than 50% growth inhibition achieved at concentrations up to 125 nM)”; in the experiment on LS174T cells it was “Complete*** (Denotes greater than 75% growth inhibition achieved at 62 nM)”; in the experiment on HT29 cells, “Complete*** (Denotes greater than 75% growth inhibition achieved at 62 nM)”; in the experiment with CACO2 cells, “Complete*** (Denotes greater than 75% growth inhibition achieved at 62 nM)”; with SUM149 cells, “Partial** (Denotes greater than 50% but less than 75% growth inhibition achieved at 62 nM)”. For the same compound, the “Difference in mean IC50 between cell line groups” value with human tumor cell lines is reported as 8 fold. In experiment [1], the “Inhibition of proliferation in vitro” value is reported as “not significantly inhibited”.
As to `C[C@@H]1O[C@@H](O[C@H]2C[C@@H](O)[C@]3(CO)[C@H]4[C@H](O)C[C@]5(C)[C@@H](C6=CC(=O)OC6)CC[C@]5(O)[C@@H]4CC[C@]3(O)C2)[C@H](O)[C@H](O)[C@H]1O` [ouabain], the “Inhibition of proliferation in vitro” value in [1] was “not significantly inhibited”.
